Data: ChEMBL document CHEMBL1142023, “Structure-activity relationships of dimeric PPAR agonists” (Bioorg Med Chem Lett, 2005)
pEC50: −log10 of the molar value.

Legend:
[1] = molecular target: T1, Peroxisome proliferator-activated receptor alpha (Homo sapiens, UniProt Q07869); experiment: Effective concentration for human peroxisome proliferator-activated receptor alpha
T1 sequence (Q07869 whole entry): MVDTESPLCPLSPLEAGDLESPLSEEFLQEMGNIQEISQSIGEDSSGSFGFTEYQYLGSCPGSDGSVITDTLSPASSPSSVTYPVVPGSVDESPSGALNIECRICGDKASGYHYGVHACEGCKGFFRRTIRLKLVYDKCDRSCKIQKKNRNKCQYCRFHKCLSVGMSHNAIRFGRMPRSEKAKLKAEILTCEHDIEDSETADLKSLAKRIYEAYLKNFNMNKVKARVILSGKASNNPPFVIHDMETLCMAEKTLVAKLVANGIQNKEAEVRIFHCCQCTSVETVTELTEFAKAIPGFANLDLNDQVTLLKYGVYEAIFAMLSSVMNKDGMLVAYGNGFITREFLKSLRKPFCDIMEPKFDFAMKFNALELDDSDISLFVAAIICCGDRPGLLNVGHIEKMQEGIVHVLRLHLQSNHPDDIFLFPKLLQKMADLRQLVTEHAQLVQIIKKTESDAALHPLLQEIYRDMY

[2] = molecular target: T2, Peroxisome proliferator-activated receptor delta (Homo sapiens, UniProt Q03181); experiment: Effective concentration for human peroxisome proliferator-activated receptor delta
T2 sequence (Q03181 whole entry): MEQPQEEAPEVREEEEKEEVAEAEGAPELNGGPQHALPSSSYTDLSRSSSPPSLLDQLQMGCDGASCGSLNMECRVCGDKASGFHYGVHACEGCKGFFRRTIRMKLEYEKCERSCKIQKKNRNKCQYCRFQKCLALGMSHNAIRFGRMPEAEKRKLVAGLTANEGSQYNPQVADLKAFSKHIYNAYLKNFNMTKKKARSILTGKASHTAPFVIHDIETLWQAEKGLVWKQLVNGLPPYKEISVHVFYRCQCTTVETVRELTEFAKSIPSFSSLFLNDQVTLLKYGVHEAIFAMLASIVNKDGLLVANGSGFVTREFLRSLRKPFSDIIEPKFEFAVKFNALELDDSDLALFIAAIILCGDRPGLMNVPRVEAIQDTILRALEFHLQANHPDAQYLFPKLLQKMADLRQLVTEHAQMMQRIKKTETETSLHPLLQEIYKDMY

Structure (SMILES)	pEC50 [1]	pEC50 [2]
CCO[C@@H](Cc1ccc(OCc2ccc(COc3ccc(C[C@H](OCC)C(=O)O)cc3)cc2)cc1)C(=O)O	4.82	
CCO[C@H](Cc1ccc(OC/C=C/C#Cc2ccccc2)cc1)C(=O)O	7.15	5.16
CCO[C@H](Cc1ccc(OC/C=C(/C)C#Cc2ccc(-c3ccc(C#C/C(C)=C/COc4ccc(C[C@@H](OCC)C(=O)O)cc4)cc3)cc2)cc1)C(=O)O	5.74	5.39
CCO[C@H](Cc1ccc(OC/C=C(\C)c2ccc(-c3ccc(/C(C)=C/COc4ccc(C[C@@H](OCC)C(=O)O)cc4)cc3)cc2)cc1)C(=O)O	5.17	5.68
CCO[C@@H](Cc1ccc(OC/C=C(/C)C#Cc2ccccc2)cc1)C(=O)O	6.52	4.96
CCOC(Cc1ccc(OC/C=C/c2ccccc2)cc1)C(=O)O (single isomer, unassigned)	5.80	4.74
CCOC(Cc1ccc(OC/C=C/C#Cc2ccc(C#C/C=C/COc3ccc(C[C@@H](OCC)C(=O)O)cc3)cc2)cc1)C(=O)O (single isomer, unassigned)	6.15	5.66
CCOC(Cc1ccc(OC/C=C/C#CC#C/C=C/COc2ccc(C[C@@H](OCC)C(=O)O)cc2)cc1)C(=O)O (single isomer, unassigned)	5.43	4.82
CCOC(Cc1ccc(OCC#CCOc2ccc(C[C@@H](OCC)C(=O)O)cc2)cc1)C(=O)O (single isomer, unassigned)	5.02	
CCOC(Cc1ccc(OC/C=C(\C)C#Cc2ccc(C#C/C(C)=C/COc3ccc(C[C@@H](OCC)C(=O)O)cc3)cc2)cc1)C(=O)O (single isomer, unassigned)	5.92	5.74
CCOC(Cc1ccc(OCC/C=C/c2ccccc2)cc1)C(=O)O (single isomer, unassigned)	5.96	4.72
CCO[C@H](Cc1ccc(OC/C=C(\C)C#Cc2ccc3c(c2)C(=O)c2cc(C#C/C(C)=C/COc4ccc(C[C@@H](OCC)C(=O)O)cc4)ccc2-3)cc1)C(=O)O (stereo in doubt)	5.64	
